32 molecules from ChEMBL document CHEMBL3745644, “The synthesis and BK channel-opening activity of N-acylaminoalkyloxime derivatives of dehydroabietic acid” (Bioorg Med Chem Lett, 2016) can be followed below.

The target in the experiment is Calcium-activated potassium channel subunit alpha-1 (Homo sapiens) (UniProt Q12791). In words: Induction of step pulse-induced human BKalpha channel opening activity expressed in CHO-K1 cells at 30 uM by population patch clamp method relative to control. It counts as cell-based.
Chain of Calcium-activated potassium channel subunit alpha-1 (Homo sapiens) (Q12791 whole entry): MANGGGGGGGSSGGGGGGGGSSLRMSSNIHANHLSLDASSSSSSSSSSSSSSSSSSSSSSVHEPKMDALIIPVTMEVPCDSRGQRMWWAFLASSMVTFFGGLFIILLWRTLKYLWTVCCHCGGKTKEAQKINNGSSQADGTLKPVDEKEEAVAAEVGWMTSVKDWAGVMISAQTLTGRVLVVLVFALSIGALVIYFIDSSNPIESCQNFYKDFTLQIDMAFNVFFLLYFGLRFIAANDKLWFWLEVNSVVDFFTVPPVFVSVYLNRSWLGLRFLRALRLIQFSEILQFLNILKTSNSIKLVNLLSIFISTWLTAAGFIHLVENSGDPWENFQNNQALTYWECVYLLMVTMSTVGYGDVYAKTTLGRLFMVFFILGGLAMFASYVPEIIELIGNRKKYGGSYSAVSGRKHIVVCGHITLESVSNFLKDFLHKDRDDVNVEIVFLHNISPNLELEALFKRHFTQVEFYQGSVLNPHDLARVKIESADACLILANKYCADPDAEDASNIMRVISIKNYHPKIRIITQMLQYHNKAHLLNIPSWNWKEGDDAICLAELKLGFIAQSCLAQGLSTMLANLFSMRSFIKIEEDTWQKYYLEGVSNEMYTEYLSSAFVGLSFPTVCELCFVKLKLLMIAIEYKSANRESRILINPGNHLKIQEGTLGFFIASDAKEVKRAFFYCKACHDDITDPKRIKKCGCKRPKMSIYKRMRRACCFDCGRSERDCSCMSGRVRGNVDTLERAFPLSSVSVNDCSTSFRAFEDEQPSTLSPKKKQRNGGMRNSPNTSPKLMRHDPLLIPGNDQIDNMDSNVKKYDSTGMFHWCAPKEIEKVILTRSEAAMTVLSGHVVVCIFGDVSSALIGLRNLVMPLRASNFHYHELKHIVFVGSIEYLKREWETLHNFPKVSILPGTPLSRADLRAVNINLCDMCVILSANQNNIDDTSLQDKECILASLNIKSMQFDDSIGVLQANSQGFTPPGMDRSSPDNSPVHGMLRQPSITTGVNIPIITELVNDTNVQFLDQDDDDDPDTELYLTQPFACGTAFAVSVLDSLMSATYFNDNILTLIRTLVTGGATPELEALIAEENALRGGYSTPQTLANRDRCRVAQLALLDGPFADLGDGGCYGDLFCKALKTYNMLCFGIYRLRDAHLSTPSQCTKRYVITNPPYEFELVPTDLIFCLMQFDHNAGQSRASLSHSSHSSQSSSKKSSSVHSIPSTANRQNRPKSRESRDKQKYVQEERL
On to `CC(C)c1cc2c(cc1Br)[C@@]1(C)CCC[C@@](C)(C(=O)O)[C@@H]1C/C2=N\OCCNC(=O)c1c(F)c(F)c(F)c(F)c1F`, for which the Activity stood at 136%.

For `CCc1ccc(C(=O)NCCO/N=C2\C[C@H]3[C@](C)(C(=O)O)CCC[C@]3(C)c3cc(Br)c(C(C)C)cc32)cc1`, the Activity is 68%.

As to `CC(C)c1cc2c(cc1Br)[C@@]1(C)CCC[C@@](C)(C(=O)O)[C@@H]1C/C2=N\OCCNC(=O)c1ccccc1F`, the Activity came to 118%.

In the case of `CC(C)c1cc2c(cc1Br)[C@@]1(C)CCC[C@@](C)(C(=O)O)[C@@H]1C/C2=N\OCCN`, the Activity amounted to 98.6%.

With `CC(C)c1cc2c(cc1Br)[C@@]1(C)CCC[C@@](C)(C(=O)O)[C@@H]1C/C2=N\OCCNC(=O)c1ccc(Cl)s1`, the Activity came to 103%.

Regarding `O=c1[nH]c2cc(C(F)(F)F)ccc2n1-c1cc(C(F)(F)F)ccc1O`, the Activity is 268%.

As to `CC(C)c1cc2c(cc1Br)[C@@]1(C)CCC[C@@](C)(C(=O)O)[C@@H]1C/C2=N\OCCNC(=O)c1cc2ccccc2s1`, the Activity came out at 85.7%.

Turning to `CC(C)c1cc2c(cc1Br)[C@@]1(C)CCC[C@@](C)(C(=O)O)[C@@H]1C/C2=N\OCCNC(=O)c1ccc(C(F)(F)F)cc1`, the Activity was determined as 107%.

`COc1ccc(C(=O)NCCO/N=C2\C[C@H]3[C@](C)(C(=O)O)CCC[C@]3(C)c3cc(Br)c(C(C)C)cc32)cc1`: the Activity came to 102%.

With `CC(C)c1ccc2c(c1)/C(=N/OCCNC(=O)c1cccs1)C[C@H]1[C@](C)(C(=O)O)CCC[C@]21C`, the Activity was determined as 106%.

For `CC(C)c1cc2c(cc1Br)[C@@]1(C)CCC[C@@](C)(C(=O)O)[C@@H]1C/C2=N\OCCNC(=O)c1cc2ccccc2[nH]1`, the Activity was 89%.

As to `CC(C)c1cc2c(cc1Br)[C@@]1(C)CCC[C@@](C)(C(=O)O)[C@@H]1C/C2=N\OCCNC(=O)c1ccccn1`, the Activity was determined as 108%.

Regarding `CC(C)c1cc2c(cc1Br)[C@@]1(C)CCC[C@@](C)(C(=O)O)[C@@H]1C/C2=N\OCCNC(=O)c1ccc[nH]1`, the Activity stood at 124%.

In the case of `COc1ccccc1C(=O)NCCO/N=C1\C[C@H]2[C@](C)(C(=O)O)CCC[C@]2(C)c2cc(Br)c(C(C)C)cc21`, the Activity stood at 101%.

Turning to `CC(C)c1cc2c(cc1Br)[C@@]1(C)CCC[C@@](C)(C(=O)O)[C@@H]1C/C2=N\OCCNC(=O)c1ccsc1`, the Activity is 128%.

For the molecule `CC(=O)NCCO/N=C1\C[C@H]2[C@](C)(C(=O)O)CCC[C@]2(C)c2cc(Br)c(C(C)C)cc21`, the Activity came out at 140%.

On to `CC(C)c1cc2c(cc1Br)[C@@]1(C)CCC[C@@](C)(C(=O)O)[C@@H]1C/C2=N\OCCNC(=O)C1CC1`, for which the Activity was found to be 149%.

On to `Cc1ccc(C(=O)NCCO/N=C2\C[C@H]3[C@](C)(C(=O)O)CCC[C@]3(C)c3cc(Br)c(C(C)C)cc32)s1`, for which the Activity came out at 101%.

Take `CC(C)c1cc2c(cc1Br)[C@@]1(C)CCC[C@@](C)(C(=O)O)[C@@H]1C/C2=N\OCCNC(=O)c1cccs1`: the Activity came out at 267%.

On to `CC(C)c1cc2c(cc1Br)[C@@]1(C)CCC[C@@](C)(C(=O)O)[C@@H]1C/C2=N\OCCCNC(=O)c1cccs1`, for which the Activity is 136%.

As to `CCCCCC(=O)NCCO/N=C1\C[C@H]2[C@](C)(C(=O)O)CCC[C@]2(C)c2cc(Br)c(C(C)C)cc21`, the Activity is 146%.

`CC(C)c1cc2c(cc1Br)[C@@]1(C)CCC[C@@](C)(C(=O)O)[C@@H]1C/C2=N\OCCCCCNC(=O)c1cccs1`: the Activity was found to be 104%.

Regarding `CC(C)c1cc2c(cc1Br)[C@@]1(C)CCC[C@@](C)(C(=O)O)[C@@H]1C/C2=N\OCCNC(=O)c1ccco1`, the Activity was determined as 151%.

Turning to `CC(C)c1cc2c(cc1Br)[C@@]1(C)CCC[C@@](C)(C(=O)O)[C@@H]1C/C2=N\OCCNC(=O)c1nccs1`, the Activity turned out to be 204%.

Regarding `CC(C)C(=O)NCCO/N=C1\C[C@H]2[C@](C)(C(=O)O)CCC[C@]2(C)c2cc(Br)c(C(C)C)cc21`, the Activity was 142%.

On to `CC(C)c1cc2c(cc1Br)[C@@]1(C)CCC[C@@](C)(C(=O)O)[C@@H]1C/C2=N\OCCCCCCNC(=O)c1cccs1`, for which the Activity worked out at 97.2%.

`CC(C)c1cc2c(cc1Br)[C@@]1(C)CCC[C@@](C)(C(=O)O)[C@@H]1C/C2=N\OCCNC(=O)c1cccc(C(F)(F)F)c1`: the Activity came to 113%.

Consider `CC(C)c1cc2c(cc1Br)[C@@]1(C)CCC[C@@](C)(C(=O)O)[C@@H]1C/C2=N\OCCNC(=O)c1ccccc1`, for which the Activity turned out to be 121%.

Turning to `CC(C)c1cc2c(cc1Br)[C@@]1(C)CCC[C@@](C)(C(=O)O)[C@@H]1C/C2=N\OCCNC(=O)c1cc(Br)cs1`, the Activity worked out at 106%.

Turning to `COc1cccc(C(=O)NCCO/N=C2\C[C@H]3[C@](C)(C(=O)O)CCC[C@]3(C)c3cc(Br)c(C(C)C)cc32)c1`, the Activity worked out at 90.4%.

`CC(C)c1cc2c(cc1Br)[C@@]1(C)CCC[C@@](C)(C(=O)O)[C@@H]1C/C2=N\OCCNC(=O)c1ccc(Br)s1`: the Activity came to 107%.

For the molecule `CC(C)c1cc2c(cc1Br)[C@@]1(C)CCC[C@@](C)(C(=O)O)[C@@H]1C/C2=N\OCCNC(=O)c1ccccc1C(F)(F)F`, the Activity came to 123%.
